Melting point data for 88 compounds are collected here from a melting point compilation (Tetko et al.; mined from patent text by program, amines drawn as free bases though some values may be those of a salt).

Where only a bound is given, the exact number is not on record here.

For the compound `COCCOCc1c(CN(C)CC(O)c2c[nH]c3ccccc23)sc2c(=O)c(C(=O)NCc3ccc(Cl)cc3)cn(C)c12` (stereo not drawn), the melting point was in the range of 167 to 169 °C.

The compound `COC(=O)C1=C(C)Nc2n[nH]cc2C1c1ccccc1Cl` (stereo not drawn) had a melting point of 235 °C.

For the compound `NCc1nc2ccccc2o1`, the melting point lay in the range of 46.5 to 47.5 °C.

As to `COc1ccc(S(=O)(=O)N(Cc2cccnc2)c2c(C)cc(-c3cccs3)cc2C(=O)O)cc1`, the melting point turned out to be 191 °C.

Take `CCCCOC1OC(CO)C(O)C(O)(N(CC2CCCCC2)C(=O)N(CCCl)N=O)C1O` (stereo not drawn): the melting point was 75 to 77 °C.

Consider `C#CCN1CCN(C2Cc3ccc(OC)cc3Sc3ccc(Cl)cc32)CC1` (stereo not drawn), for which the melting point fell in the range of 177 to 180 °C.

For the compound `Cc1cc(C=C2CCCC(=Cc3cc(C)c(O)c(C)c3)C2=O)cc(C)c1O`, the melting point lay within 225 to 226 °C.

`CCc1oc2ccc([N+](=O)[O-])cc2c1C(=O)c1ccc(O)cc1`: the melting point was 152 °C.

For the compound `CCN(CC)CCNc1cc(Cl)cc(NCCN(CC)CC)c1[N+](=O)[O-]`, the melting point amounted to 90 °C.

In the case of `O=C(OCc1cccnc1)c1ccc(F)cc1`, the melting point lay in the range of 142 to 143 °C.

`COC(=O)c1cc(I)cn1C` displayed a melting point of 64 to 65 °C.

Consider `CC(=O)Nc1ccc(C(=O)O)c(OC(C)=O)c1`, for which the melting point fell in the range of 191 to 193 °C.

On to `O=C(CC(=O)c1ccccc1C(=O)O)c1ccc(Cl)cc1`, for which the melting point is 148 to 150 °C.

`COc1ccccc1NC(=O)Nc1nc(Oc2ccc3ccccc3c2)nc(N(CCC(=O)O)Cc2ccc(C(F)(F)F)cc2C(F)(F)F)n1` gave a melting point of 192 °C.

On to `O=C(O)c1ccc(C=CC(=O)N2CCc3c([nH]c4ccccc34)C2c2ccc3c(c2)CCO3)nc1` (stereo not drawn), for which the melting point is 183 °C.

`CCCCCCCCCCCCc1ccc2cccnc2c1O` gave a melting point of 88.5 to 90 °C.

Regarding `CC(C)C[C@H](NC(=O)Cc1csc2ccccc12)C(=O)N[C@@H](Cc1ccccc1)C(=O)CSCc1ccco1`, the melting point is 150 to 153 °C.

Compound `CNC(=O)C(=NOCF)c1ccccc1OC1CCCCO1` (stereo not drawn) registered a melting point of 81 °C.

On to `CC(C)n1cc(-c2ccc(Oc3ccccc3)c(CO)c2)c2c(N)ncnc21`, for which the melting point lay within 92 to 94 °C.

Compound `CCCN(CCC)C(=O)C(C)n1c(-c2ccc(Cl)cc2)nc2cccnc21` (stereo not drawn) displayed a melting point of 96 to 99 °C.

The compound `CCOc1cc([C@@H](CCN(O)C=O)N2C(=O)c3cccc(NC(C)=O)c3C2=O)ccc1OC` gave a melting point of 96 to 98 °C.

`CNc1cc(Br)cc(S(=O)(=O)c2ccccc2)c1` yielded a melting point of 143 to 145 °C.

Regarding `CCSc1cc(C)nc(SCC)c1NC(=O)CCCCCCCSc1nc2cccc(C(F)(F)F)c2o1`, the melting point lay in the range of 99 to 100 °C.

On to `ONCc1coc(-c2ccccc2)n1`, for which the melting point was 59 to 61 °C.

`Cn1nc(C(C)(C)C)cc1O` showed a melting point of 150 °C.

The compound `CN(C)CCCN(C=O)C1CCC2C3CCC4CCCCC4(C)C3CCC21C` (stereo not drawn) registered a melting point of 122 °C.

Compound `CC(C(=O)O)C1CCC(C)(CCC2(C)C(C)CCC3(C)C(C)(C)CCCC23O)OO1` (stereo not drawn) gave a melting point of 157 to 159 °C.

Compound `CN1c2ccc(S(=O)(=O)c3ccccc3)cc2C2C[C@H](N)CCC21` (stereo partly drawn) showed a melting point of 217 to 219 °C.

With `CC(C)c1cc2c(s1)Sc1ccccc1NC2=S`, the melting point came out at 210 °C.

Compound `Cc1cccc(N2CCN(Cc3c[nH]c4ncccc34)CC2)c1` displayed a melting point of 156 to 158 °C.

`Cn1cc(-c2cccc(C(F)(F)F)c2)c(=O)c(-c2ccc(Cl)c(Cl)c2)c1` registered a melting point of 109 to 112 °C.

On to `CCOC(=O)C1CCc2cc3ccccc3n2C1=O` (stereo not drawn), for which the melting point is 82 to 84 °C.

`COc1ccc(C2CSc3ccccc3N(CC(=O)O)C2=O)cc1` (stereo not drawn) came in with a melting point of 180 °C.

In turn, `CC1(C)CC(C)(C#N)c2cn(-c3ccc(F)cc3)c(C=O)c21` (stereo not drawn) came in with a melting point of 165 to 168 °C.

For the compound `COc1nccnc1C1(Cl)CN2CCC1CC2` (stereo not drawn), the melting point lay in the range of 59 to 60 °C.

The compound `CCOC(=O)NC1=NCC(c2ccc(OCC)cc2)N1C` (stereo not drawn) showed a melting point of 115 to 116 °C.

In the case of `N#Cc1ccc(OCCO)c(C(N)=O)c1`, the melting point was 144 to 146 °C.

The compound `Cc1c(-c2ccccc2)n(-c2cc([N+](=O)[O-])ccc2Cl)c(-c2ccccc2)cc1=O` registered a melting point of 277 to 279 °C.

On to `N#CNC(=S)Nc1cccc([N+](=O)[O-])c1`, for which the melting point is > 210 °C.

Take `CC(C)(C)OC(=O)N1CCn2c(c(I)c(C#N)c2-c2ccccc2)C1`: the melting point lay within 174 to 178 °C.

`Oc1cc(-c2ncnc(C(F)(F)F)c2Cl)c(F)cc1Cl`: the melting point fell in the range of 130 to 132 °C.

`C=C1CCC2C3CC(=O)C4=CC(=O)CCC4(C)C3CCC12C` (stereo not drawn) yielded a melting point of 113 to 115 °C.

`COCc1ccc2c(c1)ncn2-c1cccc(-c2ccccc2)c1` registered a melting point of 70 to 72 °C.

For `C[C@@H](Nc1ncnc2[nH]c(-c3ccc(CN4CCN(C)CC4)cc3)cc12)c1ccccc1`, the melting point was 248 to 250 °C.

The compound `O=C(O)[C@H]1CC[C@H](N2CCC(Oc3ccc(Cl)c(Cl)c3)CC2)CC1` displayed a melting point of 167 to 168 °C.

On to `CCCCCCNC(=O)n1nc(Oc2c(Cl)cc(C(F)(F)F)cc2Cl)c(Cl)c1C`, for which the melting point fell in the range of 86 to 88 °C.

Turning to `COc1ccc(CCN2CCc3cc(OCc4ccccc4)c(OC)cc3C2)cc1`, the melting point fell in the range of 88 to 89 °C.

In the case of `COC(=O)CC1=C(C)C(=Cc2ccc(S(=O)(=O)NC(C)=O)cc2)c2ccc(OC)cc21`, the melting point fell in the range of 172 to 174 °C.

For the compound `COc1ccc([N+](=O)[O-])cc1NC(C)=O`, the melting point fell in the range of 172 to 177 °C.

`COc1cc2cc3c(Nc4ccc(F)c(Cl)c4)c(C#N)cnc3cc2cc1OCCN1CCOCC1`: the melting point lay within 237 to 242 °C.

In turn, `O=C(CC1c2ccccc2S(=O)(=O)C1c1ccccc1)NO` (stereo not drawn) registered a melting point of 113 to 114 °C.

`O=C1NC2(NC1=O)Oc1ccccc1O2` displayed a melting point of 202 °C.

In turn, `COc1cc2cc(OCCCN3CCCCC3)ccc2c2ccc(OCCCN3CCCCC3)cc12` displayed a melting point of 118 to 120 °C.

`N#CC(=NNc1c(Cl)cc(C(F)(F)F)cc1Cl)c1ccc(Cl)cc1` returned a melting point of 164 to 165 °C.

`CC(=O)N1c2ccccc2NC(=O)c2cscc21` returned a melting point of 228 to 230 °C.

Regarding `CCCCCn1c(C2=CC(=O)c3ccccc3C2=O)ccc1C1=CC(=O)c2ccccc2C1=O`, the melting point worked out at 128 °C.

Turning to `CC(c1cc(Br)c(O)c(Br)c1)(c1cc(Br)c(O)c(Br)c1)c1cc(Br)c(O)c(Br)c1`, the melting point turned out to be 160 °C.

On to `Cc1c(NCCO)c(F)cc2c(=O)c(C(=O)O)cn(-c3cc(N)c(F)cc3F)c12`, for which the melting point lay in the range of 166 to 168 °C.

For the compound `COc1ccc(S(=O)(=O)C(Cc2ccc3ccccc3c2)C(=O)NO)cc1` (stereo not drawn), the melting point lay in the range of 161 to 163 °C.

Consider `Cc1c(N2C[C@H](C)[C@H](NC(=O)C(F)(F)F)C2)c(F)c(N)c2c(=O)c(C(=O)O)cn(C3CC3)c12` (relative stereo), for which the melting point was in the range of 253 to 254 °C.

For `CCc1cn(C2CC(O)C(CCC(=O)C(C)Oc3ccc(Cl)cc3Cl)O2)c(=O)[nH]c1=O` (mixture of isomers), the melting point lay within 157 to 159 °C.

In turn, `COC(=O)C(=O)c1ccc(OCCOc2ccc(-c3ccccc3)cc2)cc1` came in with a melting point of 143 to 145 °C.

`CCOC(=O)/C=C/c1ccc(OCCCC#N)cc1Oc1ncc(C(F)(F)F)cc1Cl` yielded a melting point of 106 to 107 °C.

With `CCn1ncc2nc(C(=O)N3CCN(C)CC3)c(-c3ccccc3)nc21`, the melting point is 170 to 171 °C.

Turning to `COc1nc(C)nc(NC(=O)NS(=O)(=O)c2ccccc2C(=O)OC(C)C)n1`, the melting point lay in the range of 193 to 196 °C.

As for `CNC(=O)Oc1c(OC)c(OC)c(OC(=O)NC)c2ccccc12`, the melting point was 228 to 229 °C.

In turn, `COC(=O)CCCC(=O)Nc1ccc(C(=O)NN=C2C(=O)Nc3ccc(I)cc32)cc1` gave a melting point of 282 °C.

For `Oc1cn(-c2c(Cl)cc(C(F)(F)F)cc2Cl)nc1C(F)(F)F`, the melting point lay within 186 to 188 °C.

In the case of `Cn1cc(Br)c(=O)c(-c2cccc(C(F)(F)F)c2)c1`, the melting point was in the range of 167 to 169 °C.

Compound `CCOCCn1cc2c(C3C(=O)Nc4ccc(Cl)cc43)nc(NCCN3CCOCC3)nc2n1` (stereo not drawn) registered a melting point of 293 to 294 °C.

Compound `CCCCSC(=NC(=O)N(CCC)CCC)NC(=O)NC(C)(C)C` came in with a melting point of 92 to 94 °C.

On to `O=S(=O)(c1ccc(Cl)cc1)C1(c2cccnc2Cl)CCCCCC1`, for which the melting point lay within 168 to 169 °C.

Take `CCOC(=O)c1c(N)c(C)nn1C`: the melting point lay in the range of 55.5 to 56.5 °C.

The compound `CCOC(=O)Oc1ccc(S(=O)(=O)N2c3cc(F)ccc3-n3cccc3C2CC)cc1` (stereo not drawn) came in with a melting point of 96 to 97 °C.

`O=C1Nc2ccncc2Oc2ccccc21` registered a melting point of 253 to 254 °C.

In the case of `CCCCCOC(=O)c1cc(NC(=O)C2=C(C)OCCS2)ccc1Cl`, the melting point was in the range of 65 to 68 °C.

In the case of `CC(C)(C)c1ocnc1/C=C1\NC(=O)[C@H](Cc2ccccc2)NC1=O`, the melting point was in the range of 52 to 56 °C.

Take `CC(=O)C1CCC2C3CCC4CC(OS(C)(=O)=O)CCC4(C)C3C(OC(=O)CI)CC12C` (stereo not drawn): the melting point is 142 to 143 °C.

Compound `C=C(Cl)CONC(=O)c1nc(-c2ccc(Cl)c(OC)c2F)cc(N)c1Cl` showed a melting point of 146 to 148 °C.

`Cc1ccc(S(N)(=O)=O)cc1Br`: the melting point was 156 °C.

Compound `CCCC(=O)C(=CNc1ccccc1COC(=O)c1ccccc1)C(=O)OCC` registered a melting point of 78 to 82 °C.

The compound `O=C(O)Cc1ccsc1Cc1nc2c(F)c(F)cc(F)c2s1` returned a melting point of 142 to 144 °C.

For the compound `CC(C)(C)OC(=O)N1CC(CO)c2c1cc(OCc1ccccc1)c1ncccc21` (stereo not drawn), the melting point lay in the range of 170 to 171 °C.

For `CN1CC[C@@H](c2c(O)cc(O)c3c(=O)cc(-c4ccccc4)oc23)[C@@H]1CO`, the melting point was in the range of 212 to 215 °C.

For `COC(=O)CCC(CS(=O)(=O)c1ccc2ccccc2c1)C(=O)N(CCC1CCCCC1)CCC1CCCCC1` (stereo not drawn), the melting point was 116 to 118 °C.

`Cc1onc(-c2cccc(Cl)c2)c1CO` displayed a melting point of 66 to 68 °C.

With `CC(C)(Cn1cnc2c(N)nc3ccccc3c21)OCCS(C)(=O)=O`, the melting point was 261 to 264 °C.

On to `COc1cccc2c(CCCN(C3CCC3)C3COc4c(F)ccc(C(N)=O)c4C3)coc12` (stereo not drawn), for which the melting point is 131 to 140 °C.

What is called melting point is the temperature, or range, at which the solid turns liquid.
